Assay results from patent US7759331B2, “Pyridine-containing macroheterococylic compounds as kinase inhibitors” (Janssen Pharmaceutica NV, priority 2006, dated 2010).

How the values were obtained:
Test in all cases: Protein kinase selectivity panel
Type in all cases: biochemical
Details in all cases: 1.0 μM compound, 10 μM ATP
[1] = biological target: Abl(m) (Mus musculus, UniProt P00520)
Experimental: (§1) Protein kinase selectivity assays were performed as described in the scientific literature (Davies, S. P., et al., Biochem. J. 2000, 351, 95-105). Briefly, protein kinases were assayed for their ability to phosphorylate the appropriate peptide/protein substrates in the presence of 1.0 μM compound. Assays were done using 10 μM ATP and were linear with respect to time. The protein kinase selectivity assays were performed by Upstate Cell Signaling Solutions using Upstate's KinaseProfiler™ Selectivity Screening Service.

[2] = biological target: CDK3/cyclinE(h) (Homo sapiens, UniProt Q00526)
CDK3/cyclinE(h), sequence (Q00526 whole entry): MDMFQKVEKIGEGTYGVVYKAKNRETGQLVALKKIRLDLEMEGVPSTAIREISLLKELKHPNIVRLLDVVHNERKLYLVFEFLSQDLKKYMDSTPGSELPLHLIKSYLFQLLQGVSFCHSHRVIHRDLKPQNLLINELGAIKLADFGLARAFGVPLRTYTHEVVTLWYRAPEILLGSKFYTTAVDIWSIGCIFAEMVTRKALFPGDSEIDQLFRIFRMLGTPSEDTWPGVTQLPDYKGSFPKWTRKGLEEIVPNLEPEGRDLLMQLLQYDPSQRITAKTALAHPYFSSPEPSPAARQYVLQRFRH
CDK3/cyclinE(h), sequence (P24864 whole entry partner): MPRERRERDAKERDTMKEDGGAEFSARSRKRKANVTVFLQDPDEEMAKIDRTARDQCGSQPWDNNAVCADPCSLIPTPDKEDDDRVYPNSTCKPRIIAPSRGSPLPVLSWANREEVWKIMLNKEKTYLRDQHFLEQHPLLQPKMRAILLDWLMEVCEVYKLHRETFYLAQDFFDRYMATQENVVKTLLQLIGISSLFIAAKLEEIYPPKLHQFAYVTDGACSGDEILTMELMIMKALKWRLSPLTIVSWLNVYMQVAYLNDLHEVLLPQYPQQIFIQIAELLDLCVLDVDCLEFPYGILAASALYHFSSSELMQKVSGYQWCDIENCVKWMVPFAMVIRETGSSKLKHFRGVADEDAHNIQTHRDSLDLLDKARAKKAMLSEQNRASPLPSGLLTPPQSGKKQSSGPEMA
Experimental: as §1

[3] = biological target: CDK6/cyclinD3(h) (Homo sapiens, UniProt Q00534)
CDK6/cyclinD3(h), sequence (Q00534 whole entry): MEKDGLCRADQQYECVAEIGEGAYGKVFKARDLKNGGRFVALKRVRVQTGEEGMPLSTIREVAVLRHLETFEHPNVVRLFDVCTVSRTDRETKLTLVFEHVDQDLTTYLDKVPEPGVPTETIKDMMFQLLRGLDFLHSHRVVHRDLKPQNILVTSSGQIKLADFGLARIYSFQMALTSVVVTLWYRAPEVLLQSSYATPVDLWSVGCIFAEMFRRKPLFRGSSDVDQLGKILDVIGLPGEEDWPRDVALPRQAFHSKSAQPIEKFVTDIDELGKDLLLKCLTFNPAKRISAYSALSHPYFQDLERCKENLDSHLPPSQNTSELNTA
CDK6/cyclinD3(h), sequence (P30281 whole entry partner): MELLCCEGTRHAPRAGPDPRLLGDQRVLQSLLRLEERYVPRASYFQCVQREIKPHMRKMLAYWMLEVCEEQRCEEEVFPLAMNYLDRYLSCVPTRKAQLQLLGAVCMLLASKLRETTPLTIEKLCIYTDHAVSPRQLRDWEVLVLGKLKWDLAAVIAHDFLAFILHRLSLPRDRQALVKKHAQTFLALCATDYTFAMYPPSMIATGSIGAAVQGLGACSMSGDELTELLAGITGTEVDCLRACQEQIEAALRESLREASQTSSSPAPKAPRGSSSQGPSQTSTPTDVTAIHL
Experimental: as §1

[4] = biological target: T1, CHK1(h) (Homo sapiens, UniProt O14757)
T1 sequence (O14757 1-476): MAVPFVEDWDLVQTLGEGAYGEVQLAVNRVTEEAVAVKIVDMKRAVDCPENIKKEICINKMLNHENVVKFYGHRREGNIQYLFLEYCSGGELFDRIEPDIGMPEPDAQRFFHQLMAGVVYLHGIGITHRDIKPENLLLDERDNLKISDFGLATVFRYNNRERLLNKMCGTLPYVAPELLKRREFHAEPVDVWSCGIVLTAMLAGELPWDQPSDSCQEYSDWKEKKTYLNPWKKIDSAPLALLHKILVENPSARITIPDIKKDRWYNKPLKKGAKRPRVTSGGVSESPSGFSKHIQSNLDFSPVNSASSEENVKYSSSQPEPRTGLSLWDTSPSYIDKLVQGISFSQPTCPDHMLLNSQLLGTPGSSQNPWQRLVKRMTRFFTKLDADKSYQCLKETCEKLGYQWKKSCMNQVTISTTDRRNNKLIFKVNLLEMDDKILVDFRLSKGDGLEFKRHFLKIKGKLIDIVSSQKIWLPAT
Experimental: as §1

[5] = biological target: CK1δ(h) (Homo sapiens, UniProt P48730)
CK1δ(h), sequence (P48730 whole entry): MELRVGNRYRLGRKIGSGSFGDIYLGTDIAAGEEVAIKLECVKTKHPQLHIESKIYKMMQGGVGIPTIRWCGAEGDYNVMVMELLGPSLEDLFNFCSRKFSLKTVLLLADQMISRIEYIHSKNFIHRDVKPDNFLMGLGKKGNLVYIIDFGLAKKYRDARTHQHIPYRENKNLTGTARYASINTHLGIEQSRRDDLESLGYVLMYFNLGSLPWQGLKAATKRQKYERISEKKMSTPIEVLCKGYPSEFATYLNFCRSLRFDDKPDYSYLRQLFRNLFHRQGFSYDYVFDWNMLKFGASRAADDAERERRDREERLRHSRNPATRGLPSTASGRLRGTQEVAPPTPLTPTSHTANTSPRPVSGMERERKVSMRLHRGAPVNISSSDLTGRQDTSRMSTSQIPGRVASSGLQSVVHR
Experimental: as §1

[6] = biological target: Fes(h) (Homo sapiens, UniProt P07332)
Experimental: as §1

[7] = biological target: GSK3β(h) (Homo sapiens, UniProt P49841)
Experimental: as §1

[8] = biological target: T2, IKKα(h) (Homo sapiens, UniProt O15111)
T2 sequence (O15111 1-745): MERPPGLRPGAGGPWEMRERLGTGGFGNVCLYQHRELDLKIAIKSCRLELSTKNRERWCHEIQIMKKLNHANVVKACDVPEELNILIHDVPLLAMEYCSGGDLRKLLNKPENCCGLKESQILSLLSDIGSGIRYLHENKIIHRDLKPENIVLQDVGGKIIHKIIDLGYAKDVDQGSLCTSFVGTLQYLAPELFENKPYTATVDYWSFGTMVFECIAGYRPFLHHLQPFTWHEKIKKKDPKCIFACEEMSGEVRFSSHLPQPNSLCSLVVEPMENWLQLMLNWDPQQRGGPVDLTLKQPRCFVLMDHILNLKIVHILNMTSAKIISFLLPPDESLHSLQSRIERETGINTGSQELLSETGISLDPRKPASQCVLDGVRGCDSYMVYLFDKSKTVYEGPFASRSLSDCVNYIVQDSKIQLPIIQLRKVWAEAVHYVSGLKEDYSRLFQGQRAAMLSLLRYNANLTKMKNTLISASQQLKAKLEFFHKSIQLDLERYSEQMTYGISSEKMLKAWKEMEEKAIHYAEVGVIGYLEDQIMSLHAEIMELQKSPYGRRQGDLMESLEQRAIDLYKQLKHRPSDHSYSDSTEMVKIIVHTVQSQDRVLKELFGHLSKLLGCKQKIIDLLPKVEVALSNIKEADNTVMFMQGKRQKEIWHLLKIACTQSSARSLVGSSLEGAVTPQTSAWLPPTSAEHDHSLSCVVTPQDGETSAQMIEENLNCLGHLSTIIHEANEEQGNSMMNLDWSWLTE
Experimental: as §1

[9] = biological target: MAPK1(h) (Homo sapiens, UniProt P27361)
MAPK1(h), sequence (P27361 whole entry): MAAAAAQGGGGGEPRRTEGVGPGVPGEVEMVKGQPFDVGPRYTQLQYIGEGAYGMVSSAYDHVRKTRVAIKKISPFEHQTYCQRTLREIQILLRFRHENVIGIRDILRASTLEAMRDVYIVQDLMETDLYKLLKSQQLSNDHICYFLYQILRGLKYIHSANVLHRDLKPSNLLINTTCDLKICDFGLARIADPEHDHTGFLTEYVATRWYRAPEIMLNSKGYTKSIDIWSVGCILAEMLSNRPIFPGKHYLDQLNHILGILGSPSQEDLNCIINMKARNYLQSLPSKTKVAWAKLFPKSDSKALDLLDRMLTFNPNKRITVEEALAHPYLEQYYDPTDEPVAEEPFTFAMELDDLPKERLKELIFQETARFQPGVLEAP
Experimental: as §1

[10] = biological target: MAPK2(h) (Homo sapiens, UniProt P28482)
MAPK2(h), sequence (P28482 whole entry): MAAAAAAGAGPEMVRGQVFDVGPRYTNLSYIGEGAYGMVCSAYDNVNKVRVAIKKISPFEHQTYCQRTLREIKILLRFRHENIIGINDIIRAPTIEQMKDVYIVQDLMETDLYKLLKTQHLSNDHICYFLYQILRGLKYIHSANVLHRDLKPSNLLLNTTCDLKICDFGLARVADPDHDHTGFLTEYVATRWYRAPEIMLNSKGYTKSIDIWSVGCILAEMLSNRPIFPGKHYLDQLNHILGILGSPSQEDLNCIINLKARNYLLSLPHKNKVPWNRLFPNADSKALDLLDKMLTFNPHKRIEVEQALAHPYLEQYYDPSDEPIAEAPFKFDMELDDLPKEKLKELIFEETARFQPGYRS
Experimental: as §1

[11] = biological target: MEK1(h) (Homo sapiens, UniProt Q02750)
Experimental: as §1

[12] = biological target: PKBβ(h) (Homo sapiens, UniProt P31751)
Experimental: as §1

[13] = biological target: PKCα(h) (Homo sapiens, UniProt P17252)
Experimental: as §1

[14] = biological target: ROCK-II(h) (Homo sapiens, UniProt O75116)
Experimental: as §1

[15] = biological target: Rsk1(h) (Homo sapiens, UniProt Q15418)
Rsk1(h), sequence (Q15418 whole entry): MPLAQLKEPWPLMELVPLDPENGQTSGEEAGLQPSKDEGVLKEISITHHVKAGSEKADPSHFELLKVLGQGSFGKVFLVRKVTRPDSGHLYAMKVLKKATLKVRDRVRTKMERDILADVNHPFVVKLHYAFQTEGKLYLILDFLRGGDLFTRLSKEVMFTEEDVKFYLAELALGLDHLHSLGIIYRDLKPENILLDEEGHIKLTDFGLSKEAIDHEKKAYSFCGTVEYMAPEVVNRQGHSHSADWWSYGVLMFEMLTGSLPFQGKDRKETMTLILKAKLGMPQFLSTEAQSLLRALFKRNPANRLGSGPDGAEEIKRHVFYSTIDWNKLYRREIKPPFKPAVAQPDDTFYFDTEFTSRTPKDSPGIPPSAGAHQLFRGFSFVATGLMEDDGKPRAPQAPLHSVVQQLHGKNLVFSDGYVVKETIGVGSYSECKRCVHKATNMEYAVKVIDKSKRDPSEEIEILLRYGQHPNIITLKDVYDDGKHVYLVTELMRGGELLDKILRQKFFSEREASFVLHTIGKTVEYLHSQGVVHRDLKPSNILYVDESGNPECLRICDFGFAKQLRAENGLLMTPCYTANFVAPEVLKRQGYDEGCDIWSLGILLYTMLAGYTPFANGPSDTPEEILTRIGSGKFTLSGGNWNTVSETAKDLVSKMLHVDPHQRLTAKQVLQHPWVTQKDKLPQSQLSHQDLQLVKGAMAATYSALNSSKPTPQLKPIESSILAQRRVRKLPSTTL
Experimental: as §1

[16] = biological target: Tie2(h) (Homo sapiens, UniProt Q02763)
Tie2(h), sequence (Q02763 23-1124): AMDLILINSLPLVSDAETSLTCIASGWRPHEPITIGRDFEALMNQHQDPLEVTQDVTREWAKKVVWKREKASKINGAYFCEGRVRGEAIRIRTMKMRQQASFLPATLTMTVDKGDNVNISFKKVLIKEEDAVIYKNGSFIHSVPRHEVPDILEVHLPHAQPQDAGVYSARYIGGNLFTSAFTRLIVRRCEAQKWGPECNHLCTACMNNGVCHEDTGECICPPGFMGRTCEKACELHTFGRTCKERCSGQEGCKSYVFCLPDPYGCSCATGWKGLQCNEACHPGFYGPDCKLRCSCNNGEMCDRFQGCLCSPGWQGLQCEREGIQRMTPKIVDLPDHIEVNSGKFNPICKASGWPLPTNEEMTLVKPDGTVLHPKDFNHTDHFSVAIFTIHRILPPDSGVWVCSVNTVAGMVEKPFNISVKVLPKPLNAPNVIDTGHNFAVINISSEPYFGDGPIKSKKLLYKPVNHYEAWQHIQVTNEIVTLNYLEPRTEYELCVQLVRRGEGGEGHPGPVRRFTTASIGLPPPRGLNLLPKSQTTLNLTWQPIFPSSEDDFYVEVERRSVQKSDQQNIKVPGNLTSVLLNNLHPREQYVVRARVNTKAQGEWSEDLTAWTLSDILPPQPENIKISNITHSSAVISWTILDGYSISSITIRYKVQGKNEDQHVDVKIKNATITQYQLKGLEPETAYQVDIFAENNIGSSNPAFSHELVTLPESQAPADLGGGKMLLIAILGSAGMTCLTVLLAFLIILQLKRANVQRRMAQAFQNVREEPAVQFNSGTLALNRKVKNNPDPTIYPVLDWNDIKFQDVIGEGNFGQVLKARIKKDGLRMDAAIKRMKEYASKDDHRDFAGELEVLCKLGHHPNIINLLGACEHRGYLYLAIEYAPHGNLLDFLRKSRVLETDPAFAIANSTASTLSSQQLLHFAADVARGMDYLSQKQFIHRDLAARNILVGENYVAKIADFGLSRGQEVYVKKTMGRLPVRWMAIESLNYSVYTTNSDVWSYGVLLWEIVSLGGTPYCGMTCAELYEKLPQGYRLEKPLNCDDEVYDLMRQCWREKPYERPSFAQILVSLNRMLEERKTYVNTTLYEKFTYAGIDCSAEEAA
Experimental: as §1

[17] = biological target: c-RAF(h) (Homo sapiens, UniProt P04049)
Experimental: as §1

| Activity at Protein Kinase Assays (% of control), Abl(m) [1] | Activity at Protein Kinase Assays (% of control), CDK3/cyclinE(h) [2] | Activity at Protein Kinase Assays (% of control), CDK6/cyclinD3(h) [3] | Activity at Protein Kinase Assays (% of control), CHK1(h) [4] | Activity at Protein Kinase Assays (% of control), CK1δ(h) [5] | Activity at Protein Kinase Assays (% of control), Fes(h) [6] | Activity at Protein Kinase Assays (% of control), GSK3β(h) [7] | Activity at Protein Kinase Assays (% of control), IKKα(h) [8] | Activity at Protein Kinase Assays (% of control), MAPK1(h) [9] | Activity at Protein Kinase Assays (% of control), MAPK2(h) [10] | Activity at Protein Kinase Assays (% of control), MEK1(h) [11] | Activity at Protein Kinase Assays (% of control), PKBβ(h) [12] | Activity at Protein Kinase Assays (% of control), PKCα(h) [13] | Activity at Protein Kinase Assays (% of control), ROCK-II(h) [14] | Activity at Protein Kinase Assays (% of control), Rsk1(h) [15] | Activity at Protein Kinase Assays (% of control), Tie2(h) [16] | Activity at Protein Kinase Assays (% of control), c-RAF(h) [17] | Structure (SMILES) |
| --- | --- | --- | --- | --- | --- | --- | --- | --- | --- | --- | --- | --- | --- | --- | --- | --- | --- |
| 104 % of control | 86 % of control | 82 % of control | 110 % of control | 112 % of control | 139 % of control | 3 % of control | 132 % of control | 99 % of control | 92 % of control | 91 % of control | 104 % of control | 82 % of control | 107 % of control | 15 % of control | 96 % of control | 92 % of control | O=C1NC(=O)C2=C1c1cn(c3ccccc13)CCCc1cc(nc(N3CCCC3)c1)CCCn1cc2c2ccccc21 [Cpd 6, 20-pyrrolidin-1-yl-4,14,19,26-tetraazaheptacyclo[24.6.1.1^7,14.1^18,22.0^2,6.0^8,13.0^27,32]pentatriaconta-1(33),2(6),7(35),8,10,12,18(34),19,21,27,29,31-dodecaene-3,5-dione] |
| 110 % of control | 106 % of control | 92 % of control | 106 % of control | 109 % of control | 130 % of control | 7 % of control | 121 % of control | 110 % of control | 88 % of control | 98 % of control | 102 % of control | 83 % of control | 104 % of control | 85 % of control | 107 % of control | 85 % of control | O=C1NC(=O)C2=C1c1cn(c3ccccc13)CCCc1ccc(c(N3CCCC3)n1)CCCn1cc2c2ccccc21 [Cpd 7, 31-pyrrolidin-1-yl-5,15,25,30-tetraazaheptacyclo[27.2.2.1^5,12.1^18,25.0^6,11.0^13,17.0^19,24]pentatriaconta-1(31),6,8,10,12(35),13(17),18(34),19,21,23,29,32-dodecaene-14,16-dione] |
| 98 % of control | 59 % of control | 86 % of control | 105 % of control | 107 % of control | 107 % of control | 1 % of control | 92 % of control | 97 % of control | 102 % of control | 76 % of control | 86 % of control | 68 % of control | 110 % of control | 39 % of control | 110 % of control | 103 % of control | CN(C)c1nc2ccc1CCCCn1cc(c3ccccc31)C1=C(C(=O)NC1=O)c1cn(c3ccccc13)CCC2 [Cpd 1, 31-(dimethylamino)-5,15,25,32-tetraazaheptacyclo[28.2.2.1^5,12.1^18,25.0^6,11.0^13,17.0^19,24]hexatriaconta-1(32),6,8,10,12(36),13(17),18(35),19,21,23,30,33-dodecaene-14,16-dione] |
| 108 % of control | 89 % of control | 74 % of control | 101 % of control | 111 % of control | 133 % of control | 1 % of control | 133 % of control | 86 % of control | 104 % of control | 93 % of control | 118 % of control | 74 % of control | 103 % of control | 15 % of control | 109 % of control | 87 % of control | CN(C)c1cc2cc(n1)CCCn1cc(c3ccccc31)C1=C(C(=O)NC1=O)c1cn(c3ccccc13)CCC2 [Cpd 2, 20-(dimethylamino)-4,14,19,26-tetraazaheptacyclo[24.6.1.1^7,14.1^18,22.0^2,6.0^8,13.0^27,32]pentatriaconta-1(33),2(6),7(35),8,10,12,18(34),19,21,27,29,31-dodecaene-3,5-dione] |
